This is an account of results in patent publication US7989480B2, “Aryl amino acid derivatives as inhibitors for treating inflammation” (Decode Genetics EHF, priority 2006, dated 2011).

Structures are written as SMILES. Counter-ions that a name gives are not always drawn. Like-named read-outs stand apart in the source and are kept apart here.

In assay [1] the target is T1, LTA4H (leukotriene A4 hydrolase) (Homo sapiens, UniProt P09960).
T1 sequence (P09960 1-611): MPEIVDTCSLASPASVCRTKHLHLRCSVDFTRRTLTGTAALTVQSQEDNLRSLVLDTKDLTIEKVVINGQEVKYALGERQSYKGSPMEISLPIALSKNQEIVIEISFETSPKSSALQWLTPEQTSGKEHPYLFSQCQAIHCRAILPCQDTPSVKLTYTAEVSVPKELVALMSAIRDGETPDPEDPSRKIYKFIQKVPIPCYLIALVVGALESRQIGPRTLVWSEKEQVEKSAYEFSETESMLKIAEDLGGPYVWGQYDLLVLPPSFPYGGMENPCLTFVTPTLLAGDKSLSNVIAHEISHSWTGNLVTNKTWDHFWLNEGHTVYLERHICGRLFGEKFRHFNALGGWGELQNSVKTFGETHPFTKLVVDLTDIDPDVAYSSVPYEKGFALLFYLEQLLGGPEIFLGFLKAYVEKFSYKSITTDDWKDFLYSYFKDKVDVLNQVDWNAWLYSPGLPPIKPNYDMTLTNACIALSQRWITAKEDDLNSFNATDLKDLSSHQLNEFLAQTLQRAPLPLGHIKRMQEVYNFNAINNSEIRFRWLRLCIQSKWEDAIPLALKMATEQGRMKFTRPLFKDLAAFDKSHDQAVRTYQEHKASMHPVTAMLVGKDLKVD
The assay can be described thus: LTA4H enzyme inhibition (EnzIC50). The class given is biochemical.

Assay [2] has as its system hWB. Nature of the assay: hWB assay. The class given is cell-based. The settings on record: Homo sapiens.
The test system of assay [3] is colitis symptoms. The settings on record: eight weeks of treatment, primate model; cited from earlier work.
Assay [4] concerns ionophore-induced LTB4 production. The settings on record: oral administration, rat peritoneum in vivo; cited from earlier work.
For assay [5] the test system is unchanged. The settings on record: oral administration, mouse blood ex vivo; cited from earlier work.

What is called IC50 is the concentration needed to halve the response being measured. The low end stands for greater potency, the high end for weaker potency. For the compound `N[C@@H](Cc1ccc(Oc2ccc(Oc3ccccc3)cc2)cc1)C(O)C(=O)O` (stereo partly drawn) [Example 10, (3S)-3-Amino-2-hydroxy-4-[4-(4-phenoxyphenoxy)phenyl]butanoic acid hydrochloride], the IC50 in assay [1] is less than 5 µM.

In turn, `N[C@@H](CO)Cc1ccc(Oc2ccc(Oc3ccccc3)cc2)cc1` [Example 3, (R)-2-Amino-3-[4-(4-phenoxy-phenoxy)-phenyl]-propan-1-ol hydrochloride] registered an IC50 in assay [1] of less than 5 µM.

In assay [1], `N[C@@H](Cc1ccc(Oc2ccc(Oc3ccc(-c4nccs4)cc3)cc2)cc1)C(=O)O` [Example 11, (S)-2-Amino-3-{4-[4-(4-thiazol-2-yl-phenoxy)-phenoxy]-phenyl}-propionic acid] showed an IC50 of less than 5 µM.

For the compound `N[C@H](CO)Cc1ccc(Oc2ccc(Oc3ccccc3)cc2)cc1` [Example 4, (S)-2-Amino-3-[4-(4-phenoxy-phenoxy)-phenyl]-propan-1-ol hydrochloride], the figures for the 50% inhibitory concentration (IC50) in assay [2] and in assay [1] were 5 to 20 µM and less than 5 µM, respectively.

On to `COC(=O)[C@H](N)Cc1ccc(Oc2ccc(Oc3ccccc3)cc2)cc1` [Example 1, (R)-2-Amino-3-[4-(4-phenoxy-phenoxy)-phenyl]-propionic acid methyl ester hydrochloride], for which the IC50 in assay [1] was in the range of 5 to 20 µM.

Turning to `COC(=O)[C@H](N)Cc1ccc(Oc2ccc(C(=O)c3ccccc3)cc2)cc1` [Example 2, (R)-2-Amino-3-[4-(4-benzoyl-phenoxy)-phenyl]-propionic acid methyl ester hydrochloride], the half-inhibitory concentration (IC50) in assay [1] was less than 5 µM.

Regarding `COc1ccc(Oc2ccc(C[C@H](N)CO)cc2)cc1` [Example 19, (S)-2-Amino-3-[4-(4-methoxyphenoxy)-phenyl]-propan-1-ol hydrochloric acid salt], the half-maximal inhibitory concentration (IC50) in assay [1] is less than 5 µM.

On to `N[C@@H](Cc1ccc(Oc2ccc(Oc3ccccc3)cc2)cc1)C(=O)O` [Example 6, (2S)-2-Amino-3-[4-(4-phenoxyphenoxy)phenyl]propanoic acid hydrochloride], for which the IC50 in assay [2] and in assay [1] was less than 5 µM throughout.

For `N[C@H](CNO)Cc1ccc(Oc2ccc(Oc3ccc(Cl)cc3)cc2)cc1` [Example 14], the IC50 in assay [2] and in assay [1] was less than 5 µM each time.

In the case of `CC(=O)N(O)C[C@@H](N)Cc1ccc(Oc2ccc(Cl)cc2)cc1` [Example 22, N-{(S)-2-amino-3-[4-(4-chloro-phenoxy)-phenyl]-propyl}-N-hydroxy-acetamide HCl salt], the concentration for half-maximal inhibition (IC50) in assay [2] and in assay [1] was less than 5 µM throughout.

`CN[C@H](CO)Cc1ccc(Oc2ccc(Cc3ccccc3)cc2)cc1` [Example 9, (2S)-3-[4-(4-Benzylphenoxy)phenyl]-2-(methylamino)propan-1-ol hydrochloride]: the IC50 in assay [1] fell in the range of 5 to 20 µM.

In turn, `CN[C@H](CO)Cc1ccc(Oc2ccc(Oc3ccccc3)cc2)cc1` [Example 8, (2S)-2-(Methylamino)-3-[4-(4-phenoxyphenoxy)phenyl]propan-1-ol hydrochloride] returned a half-maximal inhibitory concentration (IC50) in assay [1] of 5 to 20 µM.

In the case of `N[C@@H](C(=O)O)c1ccc(Oc2ccc(Cc3ccccc3)cc2)cc1` [Example 15, (R)-Amino-[4-(4-benzyl-phenoxy)-phenyl]-acetic acid hydrochloride], the IC50 in assay [1] was less than 5 µM.

For `CN(CCCOc1ccc(Cc2ccccc2)cc1)CCC(=O)O.Cl` [SC57461], the colitis symptoms result in assay [3] is given as “significantly improved colitis symptoms”. Moreover, the “inhibition of ionophore-induced LTB4 production” value in assay [4] and in assay [5] was “inhibition of ionophore-induced LTB4 production” in each case.

Turning to `N[C@H](CO)Cc1ccc(Oc2ccc(Oc3ccc(-c4nccs4)cc3)cc2)cc1` [Example 12, (S)-2-Amino-3-{4-[4-(4-thiazol-2-yl-phenoxy)-phenoxy]-phenyl}-propan-1-ol], the IC50 in assay [2] and in assay [1] was less than 5 µM each time.

Compound `N[C@H](CNO)Cc1ccc(Oc2ccc(Cl)cc2)cc1` [Example 21, N-{(S)-2-amino-3-[4-(4-chloro-phenoxy)-phenyl]-propyl}-hydroxyamine HCl salt] came in with an IC50 in assay [1] of less than 5 µM.

On to `N[C@H](CO)Cc1ccc(Oc2ccc(Cc3ccccc3)cc2)cc1` [Example 20, (S)-2-Amino-3-[4-(4-benzylphenoxy)-phenyl]-propan-1-ol hydrochloric acid salt], for which the IC50 in assay [2] and in assay [1] was less than 5 µM in each case.

Compound `N[C@@H](Cc1ccc(Oc2ccc(Cc3ccc(Cl)cc3)cc2)cc1)C(=O)O` [Example 5, S)-2-Amino-3-{4-[4-(4-chloro-benzyl)-phenoxy]-phenyl}-propionic acid hydrochloride] yielded a 50% inhibitory concentration (IC50) in assay [1] of 5 to 20 µM.
